Laboratory results from ChEMBL document CHEMBL3044608, “Synthesis and fungicidal activity of hydrazones containing 4-methylbenzo[d]thiazole moiety” (2012).

Legend:
Format in all cases: functional
Ustilaginoidea = assay: microbe, parasite or virus in culture; settings: read-out: GI
Description: Fungicidal activity against Ustilaginoidea oryzae assessed as inhibition rate of circle mycelium growth at 500 ug/ml

Alternaria alternata = assay: microbe, parasite or virus in culture; settings: read-out: GI
Description: Fungicidal activity against Alternaria alternata assessed as inhibition rate of circle mycelium growth at 500 ug/ml

Sclerotinia sclerotiorum = assay: microbe, parasite or virus in culture; settings: read-out: GI
Description: Fungicidal activity against Sclerotinia sclerotiorum assessed as inhibition rate of circle mycelium growth at 500 ug/ml

Rhizoctonia solani [1] = assay: microbe, parasite or virus in culture; settings: read-out: GI
Description: Fungicidal activity against Rhizoctonia solani assessed as inhibition rate of circle mycelium growth at 500 ug/ml

Botrytis cinerea = assay: microbe, parasite or virus in culture; settings: read-out: GI
Description: Fungicidal activity against Botryotinia fuckeliana assessed as inhibition rate of circle mycelium growth at 500 ug/ml

Phytophthora capsici = assay: microbe, parasite or virus in culture; settings: read-out: GI
Description: Fungicidal activity against Phytophthora capsici assessed as inhibition rate of circle mycelium growth at 500 ug/ml

Fusarium graminearum = assay: microbe, parasite or virus in culture; settings: read-out: GI
Rhizoctonia solani [2] = settings: at 400 µg/mL
Description: Fungicidal activity against Rhizoctonia solani assessed as inhibition rate of circle mycelium growth at 400 ug/ml relative to control

Rhizoctonia solani [3] = settings: at 200 µg/mL
Description: Fungicidal activity against Rhizoctonia solani assessed as inhibition rate of circle mycelium growth at 200 ug/ml relative to control

Rhizoctonia solani [4] = settings: at 100 µg/mL
Description: Fungicidal activity against Rhizoctonia solani assessed as inhibition rate of circle mycelium growth at 100 ug/ml relative to control

Structure (SMILES)	inhibition of growth at 500 µg/mL (Ustilaginoidea)	inhibition of growth at 500 µg/mL (Alternaria alternata)	inhibition of growth at 500 µg/mL (Sclerotinia sclerotiorum)	inhibition of growth at 500 µg/mL (Rhizoctonia solani [1])	inhibition of growth at 500 µg/mL (Botrytis cinerea)	inhibition of growth at 500 µg/mL (Phytophthora capsici)	inhibition of growth at 500 µg/mL (Fusarium graminearum)	Efficacy (Rhizoctonia solani [2])	Efficacy (Rhizoctonia solani [3])	Efficacy (Rhizoctonia solani [4])
Cc1cccc2sc(NN)nc12	0%	13.6%	16.2%	0%	22.3%	0%	0%	–	–	–
C/C(=N\Nc1nc2c(C)cccc2s1)c1ccc(F)cc1	0%	0%	28.1%	0%	0%	0%	0%	–	–	–
CC(C)=NNc1nc2c(C)cccc2s1	20%	47.8%	59.4%	0%	70.8%	0%	0%	–	–	–
CC/C(C)=N/Nc1nc2c(C)cccc2s1	40%	47.8%	87.5%	90%	70.8%	0%	0%	–	–	–
C/C(=N\Nc1nc2c(C)cccc2s1)c1ccccc1	0%	21.7%	31.3%	0%	0%	0%	0%	–	–	–
C/C(=N\Nc1nc2c(C)cccc2s1)c1c(F)cccc1F	0%	0%	0%	95%	0%	0%	0%	65%	45%	35%
C/C(=N\Nc1nc2c(C)cccc2s1)c1ccc(Cl)cc1	0%	0%	9.4%	0%	0%	0%	0%	–	–	–
C/C(=N\Nc1nc2c(C)cccc2s1)c1ccc(C)cc1	5%	0%	28.1%	30%	0%	0%	0%	–	–	–
C/C(=N\Nc1nc2c(C)cccc2s1)c1ccc([N+](=O)[O-])cc1	0%	0%	0%	90%	0%	0%	0%	–	–	–
C/C(=N\Nc1nc2c(C)cccc2s1)c1cccc(Cl)c1	0%	0%	43.8%	0%	0%	0%	0%	–	–	–
COc1ccccc1/C(C)=N/Nc1nc2c(C)cccc2s1	0%	0%	3.1%	60%	0%	0%	0%	–	–	–
COc1ccc(/C(C)=N/Nc2nc3c(C)cccc3s2)cc1	0%	30.4%	50%	95%	37.5%	0%	0%	50%	20%	10%
C/C(=N\Nc1nc2c(C)cccc2s1)c1ccc(Br)cc1	0%	0%	46.9%	50%	0%	0%	0%	–	–	–
C/C(=N\Nc1nc2c(C)cccc2s1)C(C)C	5%	56.5%	90.6%	60%	70.8%	0%	0%	–	–	–
Cc1cccc2sc(NN=C3CCCC3)nc12	25%	52.2%	62.5%	85%	70.8%	0%	36.8%	–	–	–
Cc1cccc2sc(NN=C3CCCCC3)nc12	0%	47.8%	43.8%	0%	66.7%	0%	0%	–	–	–
CCCC1COC(Cn2cncn2)(c2ccc(Cl)cc2Cl)O1 (stereo not drawn) [PROPICONAZOLE]	0%	0%	87.5%	90%	0%	0%	0%	90%	60%	40%
Cc1cccc2sc3nncn3c12 [TRICYCLAZOLE]	0%	0%	72.7%	85%	52.8%	27.8%	13.6%	57%	33%	22%
